Assays:
[1] = tested on: HSP70; assay: HSP70 immunofluorescence in V1S-SV2 primary cortical rat neurons; format: cell-based; conditions: 10 μM
Description: To investigate the mechanism underlying these drug effects, experiments were directed towards the potential involvement of molecular chaperone HSP70. HSP70 is known to play an essential role in suppressing α-synuclein aggregation, and in particular the inhibition of α-synuclein oligomer formation (Tao et al., 2020). To investigate the in silico predictions of HSP70 interactions with top drug candidates from the Cyclica proteome screening, fluorescence intensity was measured in V1 S-SV2 primary cortical rat neurons (FIGS. 15A and E) for potential effects on α-synuclein oligomers.
Pregnant Sprague Dawley rats (E17) were purchased from Charles River. […] Cells were washed three more times before being counter-stained with DAPI for 5 mins and mounted using ProLong Gold mounting medium for fluorescence (ThermoFisher). […] Fluorescence intensity was analysed automatically using Imaris imaging software (Oxford Instruments) by measuring the mean fluorescence intensity of each individual fluorescent neuron using the “surfaces” module. This module detects fluorescence above background threshold in each field of view, identifies a cell body and neuronal projections of each cell, and calculates the mean fluorescence intensity of each fluorescent cell within the field of view. […] The value generated for each neuron was normalized to the mean of fluorescence intensity of neurons treated with vehicle alone. […]

[2] = tested on: transgenic A30P α-synuclein C. elegans; assay: Coiler score and locomotion of C. elegans expressing A30P α-synuclein in dopaminergic neurons; format: in vivo, Caenorhabditis elegans
Description: Using high-resolution, multi-worm tracking with custom image processing, methods were developed for semi-automated and blinded scoring of circularity for a population of simultaneously recorded animals (n=10 per recording). A coiler score was determined for the population tested by first calculating the circularity value for each animal in each frame of video and then calculating the proportion of circularity values >0.6. […] The coiler phenotype is an abnormal motor behaviour previously reported for several unc C. elegans strains with mutations affecting neuronal function.
Animals were synchronized by isolating eggs using alkaline hypochlorite treatment and hatching overnight. Larvae were plated onto NGM agar plates with OP50 and grown for 4 days before recording locomotion. For individual C. elegans recordings, a single adult animal was randomly picked, washed for 1 to 2 minutes in M9 buffer, and then transferred to a fresh NGM plate without food for imaging. Video images were acquired (2 frames per second) for up to 6 minutes using a sCMOS camera (pco.edge, PCO) mounted on a stereomicroscope (Olympus MVX10 MacroView) controlled using the μManager software.^55 A total of 40 individual animals were imaged for each strain. For C. elegans population recordings, ten adult animals were randomly removed using an eyelash pick, washed for 1 minute in M9 buffer, and then transferred to a fresh NGM plate without food, with a ring of copper sulfate solution (150 mM) around the area of recording (a chemorepellent to keep the animals in the recording frame). Exploratory locomotion was recorded using a CCD camera (GX1920, Allied Vision) which was attached to a dissecting stereomicroscope (Leica M165C, 1.0× PlanApo lens). A Labview program captured video (2 frames per second) at 1936×1456 resolution. Using ImageJ, the displacement, perimeter, and area of each animal was calculated, from which a circularity value was computed using the following formula: circularity=4π(A/P^2), where A is the area of the animal's body and P is the perimeter of the animal's body (both expressed in arbitrary pixel units). […] Using MATLAB (Mathworks), various behavioural metrics including the coiler score were calculated, which is the percentage of frames with a circularity value >0.6. Speed was automatically computed from the ImageJ based WrmTrk plugin as the distance travelled by each animal (in pixels) over the amount of time that it was tracked (in seconds).56 Average speed was determined by calculating the weighted average of each tracked animal's speed within a single population of animals. On the day of the recording for dopamine or raclopride treatment, adult animals were washed for 1 minute in M9 buffer, treated in a solution containing either drug for 1 minute, and then placed onto fresh NGM plates without food, with a copper sulfate solution ring around the area of recording. […] Drug plates were prepared by adding each drug to LB medium with OP50 before spreading onto fresh NGM plates. The solvent used to dissolve each drug was used as vehicle control for the drug treatment experiments (M9 buffer for dopamine, distilled water for raclopride, DMSO for all other drugs).
After 72 hours of drug treatment, animals were randomly picked, washed, and recorded. A total of ten worms were recorded per population, and twelve populations were recorded for each of the four treatment groups. Locomotion was recorded for each population over a total of 1800 frames over three minutes. The animal's movement speed, area, and perimeter were automatically analyzed as previously described. Coiler score was calculated automatically using a ratio of the animal's area to perimeter, where a higher coiler score would represent a greater degree of α-synuclein-induced dopaminergic neuron dysfunction in vivo.

Compound: Nc1nc(NC2CC2)c2ncn([C@H]3C=C[C@@H](CO)C3)c2n1 [Abacavir, abacavir]
- HSP70 fluorescence compared to vehicle control [1]: significantly increased
- locomotor speed ([2]; 100 μM of drug): No significant differences
- effect on coiling / coiler score ([2]; 100 μM, 72 hr, vs DMSO vehicle): significantly reduced
